Assay results from patent US9814759B2, “Pharmaceutical composition comprising recombinant hemoglobin protein or subunit-based therapeutic agent for cancer targeting treatment” (Cheer Global Ltd., priority 2014, dated 2017).

How the values were obtained:
[1] = system: liver cancer cells (HepG2); test: Live cell time-lapse microscopy, uptake of fluorescent labeled hemoglobin subunits in cancer cells; type: cell-based; conditions: with heme (+) or without heme (−), 0.1% O2, FIG. 10
Description: The pharmaceutical composition of the present invention comprises recombinant hemoglobin protein or recombinant hemoglobin tetramer or dimer or subunit-based therapeutic agent capable of both targeting and killing the cancer cells. […] The fluorescent labeled recombinant hemoglobin subunits can also enter into the cancer cells (e.g., liver cancer cells, HepG2) and localize in there, and the result is illustrated in FIG. 10. It is expected that the chemically modified recombinant hemoglobin protein or tetramer or dimer or subunit-based therapeutic agent can also kill the cancer cells and progenitor cells/cancer stem cells effectively.
Cancer cells (HepG2) are cultured in DMEM (Invitrogen) with 10% Fetal bovine serum (FBS), 100 U/mL penicillin and 100 μg/mL streptomycin at 37° C. For normoxic condition, cells are incubated with ambient O2 concentration and 5% CO2; for hypoxic condition, cells are incubated with 0.1-0.5% O2 (Quorum FC-7 automatic CO2/O2/N2 gas mixer) and 5% CO2.
Cancer cells (e.g. HepG2 liver cancer cells) are seeded onto glass bottom microwell dishes (MatTek Corporation). Live cells at defined zooms (63×, 20×) are acquired using Zeiss Observer Z1 widefield microscope, equipped with atmospheric/temperature-controlled chamber and motorized stage for multi-positional acquisition. The incubation is performed in an enclosed live cell imaging system purged with 0.1% O2 and 5% CO2 (premixed). Cells are exposed to the fluorescent labeled recombinant hemoglobin subunits (α, β, γ1, γ2); for 15 min prior to the acquisition of images every 3 min for a period of 2 h. Images are deconvolved and compacted into time-lapse movies using the MetaMorph software (Molecular Device).

[2] = HPLC analysis of disulfide bond cleavage under reducing condition (GSH); type: physicochemical; conditions: PBS buffer (pH 7.4), 37° C., GSH 0.4-1000 equiv, 0-2 hrs
Description: The glutathione (GSH) level is much higher in the cytoplasm of cancer cells (˜1000 equiv) when compared to blood stream (˜1 equiv). A therapeutic drug with a disulfide bond can be cleaved much more easily in the cytoplasm of cancer cells with high concentration of GSH. A high-performance liquid chromatography (HPLC) analysis for the cleavage of model compound (N-(2-mercaptoethyl)benzamide) with disulfide bond under reducing condition is shown in FIG. 12. The cleavage of model compound is observed in PBS buffer (pH 7.4) at 37° C. with different concentration of glutathione (GSH) (0.4-1000 equiv). […] In the present invention, the recombinant hemoglobin protein or recombinant hemoglobin tetramer or dimer or subunit linked with a therapeutic drug (e.g. chemotherapeutic agent, radiotherapeutic agent, anti-cancer protein drug) by a disulfide bond is prepared for cancer treatment.

[3] = native human hemoglobin, comparison value; cited from earlier work

Compound	entry into / uptake by liver cancer cells [1]	also measured
γ2: recombinant human hemoglobin monomer γ2 (146 amino acids), with or without heme	can enter into liver cancer cells (HepG2) successfully	
O=C(NCCS)c1ccccc1 [model compound, N-(2-mercaptoethyl)benzamide]		cleavage of disulfide bond at different GSH levels [2]: better at high concentration of GSH (>50 equiv)
γ1: recombinant human hemoglobin monomer γ1 (146 amino acids), with or without heme	can enter into liver cancer cells (HepG2) successfully	
α: recombinant human hemoglobin monomer α (141 amino acids), with or without heme	can enter into liver cancer cells (HepG2) successfully	
native human hemoglobin: native human hemoglobin, comparison for p50		p50 value (oxygen partial pressure necessary to produce 50 percent saturation of hemoglobin) [3]: 23-30 mm Hg
β: recombinant human hemoglobin monomer β (146 amino acids), with or without heme	can enter into liver cancer cells (HepG2) successfully	
